Data on two compounds can be found in PMC7914367, “Dual-ligand supramolecular nanofibers inspired by the renin-angiotensin system for the targeting and synergistic therapy of myocardial infarction” (Theranostics, 2021).

The test system of one series is infarcted heart. More on the design: species or system C57BL/6 mice. The note with it: mouse, in vivo. The method, then:
^Cy5.5TDCNfs, ^Cy5.5SAA1-7, and ^Cy5.5Ang1-7 were injected intravenously into the mice via tail vein at a dose of 0.2 mg. The images were captured at the prefixed time. Next, the mice were sacrificed to harvest their hearts and major organs. The samples were imaged at an excitation wavelength of 630 nm and an emission wavelength of 700 nm using an in vivo imaging system (FX PRO, BRUKER, Germany). The images were analyzed using the BRUKER Molecular Imaging Software. The targeting ability of compounds was defined by HTI = heart fluorescence emission/liver fluorescence emission.
Frozen sections were prepared in vivo, as described previously. For drugs distribution, near-infrared laser imager (GE Amersham Typhoon, Sweden) was used to capture full cross section of hearts. For co-localization experiments, the mice hearts were dissected 24 h post-injection of drugs. Anti-AT1R primary antibody (1:200 dilution) was used as the primary antibody. For fibrosis investigation, the frozen sections were incubated with primary antibodies against α-SMA (1:400 dilution). […]
manufacturer ’s protocol. […] The TUNEL positive cells were observed by the fluorescence microscope (λexc = 488 nm for TUNEL, λexc = 405 […]
(§1) Intracellular ROS was quantified with dihydroethidium (DHE). […] Intracellular ROS were detected by the fluorescence microscope (λexc = 532 nm for DHE, λexc = 405 nm for Hoechst 33342). […]

For series [1], the system named is NRCMs. Put plainly: TUNEL staining of OGD NRCMs. In kind it is cell-based, rat. The settings on record: 10 μM, 2-3 h, OGD group 26.70%, n = 3.
Series [2] concerns p-AKT, Bax/Bcl-2, cleaved caspase-3. Put plainly: Western blot of apoptosis-related proteins in OGD NRCMs. The format is cell-based, rat. The note with it: vs OGD group, n = 3. The method, then: AKT, p-AKT, Bax, Bcl-2, cleaved caspase-3, P65, TGF-β1, Histone3, AT1R, GAPDH were quantified by western blot analysis. Protein concentration was determined using the bicinchoninic acid (BCA) method. SDS-PAGE was conducted to separate the proteins in each sample (30-50 µg of protein per lane), which were subsequently transferred to a PVDF membrane. The membranes were treated with blocking buffer for 2 h at room temperature and then incubated overnight with primary antibodies at 4 °C. The primary antibodies used included anti-Phospho-AKT (1:1000 dilution), anti-AKT (1:1000 dilution), anti-caspase-3 (1:1000 dilution), anti-Bcl-2 (1:100 dilution), anti-Bax (1:1000 dilution), anti-P65 (1:800 dilution), anti-TGF-β1 (1:1000 dilution), anti-Histone 3 (1:1000 dilution) and anti-AGTR1 (1:1000 dilution). The results were normalized by comparison to parallel western blots for glyceraldehyde 3-phosphate dehydrogenase (GAPDH, 1:8000 dilution). Optical density was measured using an image processing analysis program.

The test system of series [3] is NRCMs. The series can be described thus: Intracellular ROS with DHE probe. The format is cell-based, rat. The settings on record: OGD NRCMs, 10 μM; OGD group 5.72-fold; n = 3. The method, then: The cells were counterstained with DAPI and were observed under a fluorescence microscope (details in Supporting Information). […]
(§2) manufacturer ’s protocol. Cells were then stained with DAPI. The TUNEL positive cells were observed by the fluorescence microscope (λexc = 488 nm for TUNEL, λexc = 405 […]
Intracellular ROS was quantified with dihydroethidium (DHE). After incubated with different treatments under OGD condition, NRCMs were then cultured with DMEM medium containing […] of DHE for 30 min at 37 ℃ and then wash ed twice with PBS. Nucleuses of NRCMs were dyed by Hoechst 33342 stain solution for 30 min at 37 °C. Intracellular ROS were detected by the fluorescence microscope (λexc = 532 nm for DHE, λexc = 405 nm for Hoechst 33342).
Adult male C57BL/6 mice (20-30g, 8-10 weeks old) were purchased from the laboratory animal center of Southern Medical University. For the MI model, mice were subjected to permanent l eft anterior descending (LAD) ligation as described previously. In brief, the animals were anesthetized using 1.5% sodium pentobarbital (50 mg/kg) through intraperitoneal i njection, and mice were ventilated with a rodent ventilator subsequently. We exposed mice hearts by the fourth intercostal space incision and a subsequent pericardium removal. The LAD was ligated using an 8-0-prolene suture permanently to perform MI generation. […]

The subject of a further series is NRCFs. Put plainly: Conditioned medium interference experiments (TGF-β1 in CM, α-SMA in NRCFs). The settings on record: NRCFs cultured 24 h with conditioned medium of pretreated OGD NRCMs, immunofluorescence, n = 3. The format is cell-based, rat. How it is done:
Next, the cells were blocked by incubating with goat serum for 30 min and incubated with primary antibodies overnight at 4 °C. The primary antibodies used here included anti-AT1R (1:200 dilution), anti-cTNT (1:500 dilution), anti-P65 (1:800 dilution), and anti‐α-SMA (1:400 dilution). The cells were incubated with FITC-labeled Goat Anti-Rabbit IgG (1:200 dilution) or Cy3-labeled Goat Anti-Mouse IgG (1:200 dilution) for 2 h at room temperature. The cells were counterstained with DAPI and imaged using a fluorescence microscope (Leica Dmi8, Germany).
CM from untreated or compound-treated cells were produced as follows. NRCMs were seeded in 35 mm culture dishes at 1 × 10^6 cells per well and incubated in growth medium containing different compounds or in media devoid of compounds for 12 h. Next, the media were replaced with serum-free medium, and the cells were cultured under hypoxia for 6 h. The CM was collected and centrifuged to culture NRCFs after a 12 h starvation period. Immunofluorescence of α-SMA was analyzed as per protocol after 24 h.
(§3) The serum and CM were collected at the indicated time points from the different groups of mice. The levels of TNF-α, IL-6, ALT, Cre, and TGF-β1 were measured using ELISA kits according to the manufacturer's protocol. The absorbance was measured at 450 nm using a microplate reader.

Series [4] deals with MI mouse model. Put plainly: Echocardiography post-MI. In kind it is in vivo, C57BL/6 mice. The note with it: MI mice, 4th week, tail vein every 2 days (TDCNfs 1084.16, T+A 328.96+576, Tel 328.96, Ang1-7 576 μg/kg); MI group approx 16%; n = 5. How it is done: (§4) Adult male C57BL/6 mice (20-30 g, 8-10 week) were purchased from the laboratory animal center of Southern Medical University, China. The protocols were approved according to the Zhujiang Hospital of Southern Medical University animal care and use committee guidelines, which conform to the guide for the care and use of laboratory animals published by the US National Institutes of Health (8th edition, 2011). […] Next, 100 µL of different drugs were administered intravenously through tail vein injection every 2 days for 3 weeks, while the mice in the Sham and MI groups were treated with an equal volume of PBS.
Twenty-eight days after surgery, the mice were anesthetized through the inhalation of isoflurane (1-1.5%) in O2 and echocardiographic examination was performed using a Vevo 2100 System equipped with a 30 MHz transducer (FUJIFILM Visual Sonics, Canada). The LVEDD, LVESD, LVEFs, and LVFS were measured. All measurements were repeated for at least three consecutive pulsation cycles and the data were averaged for statistical analysis. […]
as §2, §1

Series [5] concerns MI mouse model. Put plainly: Masson's trichrome staining, infarct size. In kind it is in vivo, C57BL/6 mice. The settings on record: MI mice, 4 weeks, collagen area/LV area, MI group 36.60%, vehicle 1219.84 μg/kg, n = 5. How it is done: as §4
The mice were sacrificed at 4 weeks after the induction of MI, and hearts and major organs were harvested and fixed in 4% paraformaldehyde overnight and embedded in paraffin. The hearts were sectioned to 5 µm along the short axis transversely across the infarct zone. The major organs were sectioned to 5 µm along the short axis. Following deparaffinization and dehydration, the samples underwent H&E and Masson's trichrome staining. The sections were observed under a microscope to evaluate the therapeutic effect and safety of the drugs. The collagen and LV areas were measured using the Image-Pro Plus software (version 6.0; Media Cybernetics, Silver Spring, MD, USA). Infarct size (%) was calculated as the ratio of the collagen area to the LV area.

The test system of series [6] is MI mouse model. Put plainly: In vivo mechanism: caspase-3 IHC, α-SMA immunofluorescence, type I collagen, TGF-β1, serum cytokines. On the set-up: species or system C57BL/6 mice. The settings on record: MI mice, n = 5. How it is done:
Frozen sections were prepared in vivo, as described previously. For drugs distribution, near-infrared laser imager (GE Amersham Typhoon, Sweden) was used to capture full cross section of hearts. For co-localization experiments, the mice hearts were dissected 24 h post-injection of drugs. Anti-AT1R primary antibody (1:200 dilution) was used as the primary antibody. For fibrosis investigation, the frozen sections were incubated with primary antibodies against α-SMA (1:400 dilution). The staining signals were visualized using FITC-labeled Goat Anti-Rabbit IgG (1:200 dilution) or Cy3-labeled Goat Anti-Rabbit IgG (1:200 dilution). The sections were counterstained with DAPI and examined under a laser confocal scanning microscope (Leica TCS SP8, Germany).
The heart tissues were fixed in 4% paraformaldehyde, dehydrated in ethanol, cleared in xylene, and embedded in paraffin. The samples were then cut into 6 μm sections on a microtome and deparaffinized. The sections were blocked by incubating with 1% BSA at room temperature for 30 min and then incubated overnight with anti-cleaved caspase-3 (1:700 dilution), anti-AT1R (1:100 dilution), anti-Collagen I (1:200 dilution) at 4 °C. Next, the sections were washed and incubated with secondary antibodies (1:500 dilution) at room temperature. The tissue sections were incubated with diaminobenzidine and counterstained with hematoxylin, dehydrated, and mounted before viewing under a microscope.
as §3

Peptide text beside a SMILES is read from it. * marks the point of attachment. X1 = CN1/C(=C/C=C/C=C/C2=[N+](CCCCCC(=O)*)c3ccc4ccccc4c3C2(C)C)C(C)(C)c2c1ccc1ccccc21

For `CC[C@H](C)[C@H](NC(=O)[C@H](Cc1ccc(O)cc1)NC(=O)[C@@H](NC(=O)[C@H](CCCNC(=N)N)NC(=O)[C@H](CC(=O)O)NC(=O)CNC(=O)CCCCC[N+]1=C(/C=C/C=C/C=C2/N(C)c3ccc4ccccc4c3C2(C)C)C(C)(C)c2c1ccc1ccccc21)C(C)C)C(=O)N[C@@H](Cc1c[nH]cn1)C(=O)N1CCC[C@H]1C(=O)O` [Cy5.5Ang1-7] (X1-GDRVYIHP-OH), the “overlapping signals with AT1R in infarct zone compared with Cy5.5TDCNfs group” value in the series with infarcted heart was “significantly lower”.
`CCCc1nc2c(C)cc(-c3nc4ccccc4n3C)cc2n1Cc1ccc(-c2ccccc2C(=O)O)cc1` [Tel, telmisartan]: in the series with NRCMs [1], the “TUNEL-positive NRCMs” value came out at 17.62%. Further, in series [2], the “decrease of Bax/Bcl-2 value” worked out at 76.3% and the “increase of p-AKT expression” value was “more than 10 fold”. Also, in the series with NRCMs [3], the “fluorescence intensity of superoxide anion (DHE) compared to the control group” value was found to be 3.23 fold. Also, in the series with NRCFs, the “reduction of α-SMA levels in NRCFs compared to the OGD group” value was 20.48%. Besides, the “left ventricular ejection fractions (LVEFs)” value with MI mouse model [4] is recorded as 29.54%. In the series on MI mouse model [5], this compound displayed an infarct size of 25.80%. Moreover, the “α-SMA expression in the non-infarcted area” value in the series with MI mouse model [6] (4 weeks post-treatment, immunofluorescence) is “inhibited to a certain extent”. The “caspase-3 expression in infarct border zone” value in the series on MI mouse model [6] (immunohistochemistry) is recorded as “reduced moderately”.
